Assay in all cases: inhibition of tumour cell growth, NCI panel, 48 h
Test [1] has as its system 786-0 renal.
In test [2] the test system is NCI-H23 lung.
For test [3], the system named is HCT-116 colon.
Test [4] has as its system MDA-N.
For test [5], the system named is PC-3 prostate.
Test [6] relates to ACHN renal.
In test [7] the test system is OVCAR-5 ovarian.
Test [8] relates to UACC-257 melanoma.
The test system of test [9] is SNB-19 CNS.
The subject of test [10] is BT-549 breast.
Test [11] deals with K-562 leukemia.

The structures appear in SMILES notation. Several values for one entry are separate records, joined by “and”; a condition that tells them apart may be missing. Equal entries are not always repeated.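 These data come from cells grown in 96-well plates and exposed to compound for 48 hours at five concentrations. Abbreviation: GI50, concentration required for 50% inhibition of growth. TGI is the concentration that stops growth completely.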 *1 amine or outer side, *2 acyl side, *3 side chain or, on linkers, in order; H or OH if unused. Where a SMILES comes first, the peptide text is derived from it. Bridges are numbered along the chain shown (N, C = ends). [ ]: non-standard residue; d: D form. The star is where a group is joined. ξ: configuration not given here. X4 = CCC(C)C(N[*:1])C(O)CC(=O)O[C@H](C(=O)C(C)C(=O)[*:2])C(C)C; NMeY = CN[C@@H](Cc1ccc(O)cc1)C(=O)O; ξNMeL = CNC(CC(C)C)C(=O)O; Cbz = O=C(OCc1ccccc1)*; Boc = CC(C)(C)OC(=O)*; Aib = CC(C)(N)C(=O)O; ξT = CC(O)C(N)C(=O)O; OBn = c1ccc(CO*)cc1; OtBu = CC(C)(C)O*; βAla = NCCC(=O)O

As to `COC(=O)[C@@H]1N2C(=S)N(c3ccccc3)C(=O)[C@H]2SC1(C)C`, the TGI in [1], in test [2], in test [3], in test [4], in test [5] and in test [6] was more than 100 µM in each case. For the same molecule, the TGI in test [7], in test [8], in [9] and in [10] was more than 100 µM throughout.
Turning to `O=C(NNC(=S)Nc1ccccc1)c1csc(NC(=S)NC2CCCCC2)n1`, the TGI in test [1], in test [2], in [3], in test [4], in test [5] and in test [6] was more than 100 µM in each case. The TGI in test [7] is more than 100 µM; in test [8] it was 56.8 µM; in [10], more than 100 µM.
For `O=C(O)c1ccc(Nc2nc3cc(C(F)(F)F)ccc3nc2C(=O)O)cc1`, the TGI in [1], in test [2], in test [3], in test [4], in test [5] and in test [6] was more than 100 µM each time. Further, the TGI in test [7], in [9], in test [10] and in [11] was more than 100 µM in each case.
Regarding `COC(=O)c1cncc2c1CC1C3(C(=O)OC)C=NC(C4C(CO)=CCC43)C21C` (stereo unspecified), the TGI in test [1], in [2], in test [3], in [4], in test [5] and in test [6] was more than 100 µM throughout. The TGI in [7], in [8] and in [9] was more than 100 µM in each case.
Take `COS(=O)c1cc(Cl)cc(Cl)c1O` (stereo unspecified): the TGI in test [2], in test [3], in test [6], in [7], in test [8] and in test [9] was more than 100 µM each time. This molecule also yielded a TGI in test [11] of more than 100 µM.
`N#CCc1nc(C#N)c(N)o1`: the TGI in test [1], in test [2], in test [3], in [4], in test [5] and in test [6] was more than 100 µM each time. The TGI in test [7], in [8], in test [9] and in [10] was more than 100 µM each time. In addition, in test [9], the GI50 is more than 100000 nM.
For `CSc1nncc(-c2cc3c(c(SC)n2)CCC3)n1`, the TGI in [1], in test [2], in test [3], in [5], in test [6] and in [7] was more than 100 µM each time. Also, the TGI in test [8], in test [9] and in test [10] was more than 100 µM throughout.
With `NC(=O)CC(Nc1ncc2c(n1)-c1ccccc1OC2)C(=O)O` (stereo unspecified), the TGI in test [1], in [2], in [3], in test [4], in [5] and in [6] was more than 100 µM throughout. Moreover, the TGI in test [7], in test [8], in [9] and in test [11] was more than 100 µM in each case.
With `CCC(C)C1NC(=O)C(NC(=O)C(CC(C)C)N(C)C(=O)[C@@H]2CCCN2)C(C)OC(=O)[C@H](Cc2ccc(OC)cc2)N(C)C(=O)[C@@H]2CCCN2C(=O)[C@H](CC(C)C)NC(=O)C(C)C(=O)[C@H](C(C)C)OC(=O)CC1O` (stereo partly specified) (H-P[ξNMeL][ξT][X4]LP[NMeY](Me); ester 3-C), the TGI in test [1] is 0.0115 µM and 0.0174 µM; in [2] it was 0.00218 µM; in [4] it was 0.0107 µM; in test [5], 0.0115 µM; in test [6], 0.0352 µM and 0.156 µM; in test [7], 0.0794 µM. Further, the TGI in [8] was 0.00814 µM and 0.0465 µM; in [9], 0.0398 µM; in [10], 0.0104 µM.
For the molecule `CSC1SCC2C(=O)N(C)C3(CC3C)C(=O)OCC(NC(=O)c3nc4ccccc4cc3O)C(=O)NC(C)C(=O)N(C)C1C(=O)N(C)C1(CC1C)C(=O)OCC(NC(=O)c1nc3ccccc3cc1O)C(=O)NC(C)C(=O)N2C` (stereo unspecified), the TGI is less than 0.0001 µM in [2]; 16.4 µM in test [3]; more than 100 µM in [6]; less than 0.0001 µM in test [8]; 6.9 µM in test [9]; less than 0.0001 µM in test [11].
`CC[N+](C)(CC)CCN1C(=O)c2ccccc2S1(=O)=O`: the TGI in test [1], in test [2], in [3], in test [5], in [6] and in test [7] was more than 100 µM in each case. In addition, the TGI in test [8], in test [9] and in test [10] was more than 100 µM throughout.
Regarding `CCOC(=O)c1cn(-c2ccc(Cl)cc2)c(=O)n2c1nc1ccccc12`, the TGI in [1], in [2], in [3], in test [5], in test [6] and in [7] was more than 100 µM each time. Moreover, the TGI in test [8], in test [9], in test [10] and in test [11] was more than 100 µM in each case.
Turning to `COc1cc(C2C3=C(COC3=O)OC(C)(C)Oc3cc4c(cc32)OCO4)cc(OC)c1OC` (stereo unspecified), the TGI in test [2] is more than 100 µM; in test [3] it was 6.65 µM; in [4] it was 3.56 µM; in test [5] it was more than 100 µM; in test [6], more than 100 µM; in [7], more than 100 µM. In addition, the TGI in test [8] was more than 100 µM; in test [10], more than 100 µM; in test [11], more than 36 µM.
As for `N#CC1=CNc2sccc2S1(=O)=O`, the TGI in [1], in test [2], in test [3], in [4], in test [5] and in test [6] was more than 100 µM throughout. Also, the TGI in test [7], in [8], in test [9] and in [10] was more than 100 µM each time.
Regarding `CC1=CC[C@@H]2CC[C@]3(C)[C@H](CC[C@@H]4[C@@]5(C)CCCNC(C)(C)[C@@H]5CC[C@]43C)[C@H]2[C@@H]1C`, the GI50 in test [2] is 1780 nM; in [5] it was 1580 nM; in test [6] it was 1760 nM; in test [7] it was 1670 nM; in [8] it was 1860 nM; in test [10], 1660 nM. The TGI came to 3.37 µM in test [2]; 3.02 µM in test [5]; 3.14 µM in test [6]; 3.07 µM in [7]; 3.63 µM in test [8]; 3.14 µM in test [10].
Consider `COc1ccc(CNc2nc(NCc3ccc(OC)cc3)nc(N3CCOCC3)n2)cc1`, for which the TGI in [1] is more than 100 µM; in test [2] it was 28.7 µM; in [3], more than 100 µM; in test [5] it was more than 100 µM; in test [6] it was more than 100 µM; in test [7], 41.6 µM. The TGI in test [8] was more than 100 µM; in test [9], more than 100 µM; in test [10], more than 100 µM; in test [11], 26.2 µM.
For `COc1c/c(=C2/C=c3ccccc3=N2)[nH]/c1=C/c1[nH]c(C)cc1C`, the GI50 is 59 nM in test [5], 598 nM in test [9] and 152 nM in test [11]. Besides, the values for the TGI in test [5], in test [9] and in test [11] were more than 100 µM, more than 100 µM and 9.91 µM, respectively.
In the case of `COc1cc(/C=C2/SC(c3ccccc3)N(c3cccc([N+](=O)[O-])c3)C2=O)cc(OC)c1OC` (stereo unspecified), the TGI in test [1] was more than 100 µM; in [2], more than 100 µM; in test [3] it was more than 100 µM; in test [4], 78.6 µM; in test [6], more than 100 µM; in test [7], more than 100 µM. Further, the TGI in test [8], in [9], in [10] and in test [11] was more than 100 µM throughout.
As for `CCCCCCCCCCCCCCCCNc1nc(=O)n(C2CC(O)C(CO)O2)cc1F` (stereo unspecified), the TGI in test [1] stood at 21.7 µM; in test [2], 18 µM; in test [3], 23.5 µM; in [4], 72.1 µM; in test [5] it was 21.2 µM; in [6], 11.9 µM. Moreover, the TGI in [7] came to 47.6 µM; in [8], 33.9 µM; in test [9], 34.6 µM; in test [10], 32.4 µM.
As for `CC(C)(C)OC(=O)CC(NC(=O)OC(C)(C)C)C(=O)NC(CCCCNC(=O)OCc1ccccc1)C(=O)NC(C)(C)C(=O)NCCC(=O)OCc1ccccc1` (stereo unspecified) (Boc-D(OtBu)K(Cbz)[Aib][βAla]-OBn; configuration not given here), the TGI in test [1], in test [2], in test [3], in test [4], in test [5] and in test [6] was more than 100 µM in each case. The TGI in test [7], in [9], in test [10] and in test [11] was more than 100 µM in each case.
Regarding `CC1(C)C2CC(c3ccncc3)ON2C(C)(C)N1O` (stereo unspecified), the TGI in [1], in [2], in [3], in test [4], in test [5] and in test [6] was more than 100 µM in each case. The TGI in test [7], in [8], in test [9] and in [11] was more than 100 µM throughout.
With `CC[N+](CC)=c1ccc2nc3c(cc(N)c4ccccc43)oc-2c1`, the GI50 in test [2] was 125 nM; in test [5], 567 nM; in test [6], 412 nM; in [7], 240 nM; in [8], 1560 nM; in test [9], 318 nM. Further, the GI50 in test [10] was 1110 nM. In addition, the TGI is 0.358 µM in test [2]; 6.94 µM in test [5]; 1.72 µM in [6]; 0.495 µM in test [7]; 3.05 µM in test [8]; 1.04 µM in test [9]. The TGI in test [10] was found to be 2.41 µM.
For `COc1cccc(-c2nc3sccn3c2-c2ccnc(NCCNC(=O)Nc3cccc(C(F)(F)F)c3)n2)c1`, the GI50 was 3420 nM in [2]; 3.45 µM in test [3]; 2480 nM in test [5]; 3170 nM in test [6]; 6370 nM in test [7]; 4340 nM in test [8]. The results for the GI50 in test [9] and in test [11] were 7770 nM and 3480 nM, respectively. Moreover, the TGI worked out at 76.9 µM in [2]; 11.6 µM in test [3]; 11.9 µM in [5]; 19.1 µM in [6]; 52.2 µM in test [7]; 16.5 µM in [8]. The TGI in test [9] and in test [11] was more than 100 µM in each case.
`OCCN=C1Nc2ccc(Cl)cc2C(=S)N2CSC[C@@H]12`: the TGI in test [1], in test [2], in [3], in [5], in test [6] and in test [7] was more than 100 µM in each case. For the same molecule, the TGI in [9] and in [11] was more than 100 µM in each case.
Turning to `CCOC(=O)c1sc2c(c1OC(=O)c1ccccc1)c(=O)n(-c1ccccc1)c(=S)n2-c1ccccc1`, the TGI in test [1] was 29.4 µM; in [2], 48.9 µM; in [3], 74.8 µM; in test [5], more than 100 µM; in test [6], more than 100 µM; in [7], more than 100 µM. The TGI in test [8], in test [9] and in [11] was more than 100 µM each time.
For the molecule `NC(=O)COc1ccccc1`, the TGI in test [1], in test [2], in [3], in [6], in test [7] and in test [8] was more than 100 µM in each case. The TGI in [9] and in test [11] was more than 100 µM throughout.
